Laboratory results taken from PubChem BioAssay AID1963978 (Molecular Pharmacology Branch, DTP, NCI, 2024).

System: 616215-338-R-J1-PDC spheroids with HUVEC/MSC, viability
Experiment: Anticancer human tumor 616215-338-R-J1-PDC patient-derived colon adenocarcinoma cell line growth inhibition [PI3K]
Details: for viability, T/C: stronger effect = lower value
Method in brief: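 Tumor cells grown as multi-cell spheroids with HUVEC endothelial cells and MSC fibroblast-like stroma were treated with targeted agents combined with inavolisib, alpelisib, duvelisib or copanlisib. Doses fell in half-log steps from near clinical Cmax, else from 10 microM. Viability was measured.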

[1] = curve of first compound, second compound 0.0316 µM
[2] = curve of first compound, second compound 0.1 µM
[3] = curve of first compound, second compound 0.316 µM
[4] = curve of first compound, second compound 1 µM
[5] = second compound 0.0316 µM, first compound 0.0316 µM
[6] = second compound 0.0316 µM, first compound 0.1 µM
[7] = second compound 0.0316 µM, first compound 0.316 µM
[8] = second compound 0.0316 µM, first compound 1 µM
[9] = second compound 0.0316 µM, first compound 3.16 µM
[10] = second compound 0.0316 µM, first compound 10 µM
[11] = second compound 0.1 µM, first compound 0.0316 µM
[12] = second compound 0.1 µM, first compound 0.1 µM
[13] = second compound 0.1 µM, first compound 0.316 µM
[14] = second compound 0.1 µM, first compound 1 µM
[15] = second compound 0.1 µM, first compound 3.16 µM
[16] = second compound 0.1 µM, first compound 10 µM
[17] = second compound 0.316 µM, first compound 0.0316 µM
[18] = second compound 0.316 µM, first compound 0.1 µM
[19] = second compound 0.316 µM, first compound 0.316 µM
[20] = second compound 0.316 µM, first compound 1 µM
[21] = second compound 0.316 µM, first compound 3.16 µM
[22] = second compound 0.316 µM, first compound 10 µM
[23] = second compound 1 µM, first compound 0.0316 µM
[24] = second compound 1 µM, first compound 0.1 µM
[25] = second compound 1 µM, first compound 0.316 µM
[26] = second compound 1 µM, first compound 1 µM
[27] = second compound 1 µM, first compound 3.16 µM
[28] = second compound 1 µM, first compound 10 µM
[29] = curve of first compound, second compound 3.16 µM
[30] = curve of first compound, second compound 10 µM
[31] = second compound 3.16 µM, first compound 0.0316 µM
[32] = second compound 3.16 µM, first compound 0.1 µM
[33] = second compound 10 µM, first compound 0.0316 µM
[34] = second compound 10 µM, first compound 0.1 µM
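Also: spheroids exposed to agents for seven days before the viability read.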

Structure (SMILES): Cn1ncc(Cl)c1-c1cc(C(=O)NC(CN)Cc2cccc(F)c2)sc1Cl (stereo unspecified) + CC(Nc1ccc2c(c1)OCCn1cc(N3C(=O)OCC3C(F)F)nc1-2)C(N)=O
- IC50 (curve of first compound, second compound 0.00316 µM): 6.62 µM
- IC50 (curve of first compound, second compound 0.01 µM): 5.81 µM
- IC50 [1]: 5.89 µM
- IC50 [2]: 5.78 µM
- IC50 [3]: 6.34 µM
- IC50 [4]: 5.53 µM
- viability, T/C (second compound 0.00316 µM, first compound 0.0316 µM): 101%
- viability, T/C (second compound 0.00316 µM, first compound 0.1 µM): 82.3%
- viability, T/C (second compound 0.00316 µM, first compound 0.316 µM): 96.3%
- viability, T/C (second compound 0.00316 µM, first compound 1 µM): 92.7%
- viability, T/C (second compound 0.00316 µM, first compound 3.16 µM): 78.6%
- viability, T/C (second compound 0.00316 µM, first compound 10 µM): 33.6%
- viability, T/C (second compound 0.01 µM, first compound 0.0316 µM): 87.6%
- viability, T/C (second compound 0.01 µM, first compound 0.1 µM): 96%
- viability, T/C (second compound 0.01 µM, first compound 0.316 µM): 115%
- viability, T/C (second compound 0.01 µM, first compound 1 µM): 104%
- viability, T/C (second compound 0.01 µM, first compound 3.16 µM): 68.3%
- viability, T/C (second compound 0.01 µM, first compound 10 µM): 33.6%
- viability, T/C [5]: 104%
- viability, T/C [6]: 92.2%
- viability, T/C [7]: 91.9%
- viability, T/C [8]: 88.8%
- viability, T/C [9]: 73.7%
- viability, T/C [10]: 30.3%
- viability, T/C [11]: 90.2%
- viability, T/C [12]: 108%
- viability, T/C [13]: 95.1%
- viability, T/C [14]: 83.7%
- viability, T/C [15]: 73.4%
- viability, T/C [16]: 30%
- viability, T/C [17]: 90.1%
- viability, T/C [18]: 110%
- viability, T/C [19]: 97%
- viability, T/C [20]: 88.3%
- viability, T/C [21]: 71.6%
- viability, T/C [22]: 36.1%
- viability, T/C [23]: 100%
- viability, T/C [24]: 101%
- viability, T/C [25]: 93.9%
- viability, T/C [26]: 81.1%
- viability, T/C [27]: 74.6%
- viability, T/C [28]: 27.9%

Structure (SMILES): Cn1nccc1Nc1nccc(-c2ccn(C(CO)c3ccc(Cl)c(F)c3)c(=O)c2)n1 (stereo unspecified)
- viability, T/C (compound 0.0316 µM): 96.3% [middle of 4 runs]
- viability, T/C (compound 0.1 µM): 101% [middle of 4 runs]
- viability, T/C (compound 0.316 µM): 90.4% [middle of 4 runs]
- viability, T/C (compound 1 µM): 66.4% [middle of 4 runs]
- viability, T/C (compound 3.16 µM): 56.4% [middle of 4 runs]
- viability, T/C (compound 10 µM): 40.1% [middle of 4 runs]
- IC50 (curve of compound): 3.91 µM [middle of 4 runs]

Structure (SMILES): Cn1ncc(Cl)c1-c1cc(C(=O)NC(CN)Cc2cccc(F)c2)sc1Cl (stereo unspecified) + Cc1nc(NC(=O)N2CCCC2C(N)=O)sc1-c1ccnc(C(C)(C)C(F)(F)F)c1
- IC50 [1]: 6.95 µM
- IC50 [2]: 6.73 µM
- IC50 [3]: 6.48 µM
- IC50 [4]: 9.17 µM
- IC50 [29]: 5.85 µM
- IC50 [30]: 4.01 µM
- viability, T/C [5]: 96%
- viability, T/C [6]: 93.5%
- viability, T/C [7]: 102%
- viability, T/C [8]: 91.5%
- viability, T/C [9]: 82.5%
- viability, T/C [10]: 35.2%
- viability, T/C [11]: 102%
- viability, T/C [12]: 95.8%
- viability, T/C [13]: 92.3%
- viability, T/C [14]: 89%
- viability, T/C [15]: 76.3%
- viability, T/C [16]: 36.4%
- viability, T/C [17]: 99.4%
- viability, T/C [18]: 96%
- viability, T/C [19]: 98.8%
- viability, T/C [20]: 96.8%
- viability, T/C [21]: 67.6%
- viability, T/C [22]: 39.4%
- viability, T/C [23]: 109%
- viability, T/C [24]: 92.9%
- viability, T/C [25]: 106%
- viability, T/C [26]: 98.4%
- viability, T/C [27]: 73.7%
- viability, T/C [28]: 48.1%
- viability, T/C [31]: 91.8%
- viability, T/C [32]: 95%
- viability, T/C (second compound 3.16 µM, first compound 0.316 µM): 94.1%
- viability, T/C (second compound 3.16 µM, first compound 1 µM): 87.7%
- viability, T/C (second compound 3.16 µM, first compound 3.16 µM): 70%
- viability, T/C (second compound 3.16 µM, first compound 10 µM): 32.6%
- viability, T/C [33]: 89.9%
- viability, T/C [34]: 90.9%
- viability, T/C (second compound 10 µM, first compound 0.316 µM): 86.3%
- viability, T/C (second compound 10 µM, first compound 1 µM): 70.5%
- viability, T/C (second compound 10 µM, first compound 3.16 µM): 59.6%
- viability, T/C (second compound 10 µM, first compound 10 µM): 22.8%

Structure (SMILES): Cn1cnc2c(F)c(Nc3ccc(Br)cc3Cl)c(C(=O)NOCCO)cc21
- viability, T/C (compound 0.00949 µM): 96.1% [middle of 4 runs]
- viability, T/C (compound 0.03 µM): 94.7% [middle of 4 runs]
- viability, T/C (compound 0.0949 µM): 92.1% [middle of 4 runs]
- viability, T/C (compound 0.3 µM): 80.6% [middle of 4 runs]
- viability, T/C (compound 0.949 µM): 58.5% [middle of 4 runs]
- viability, T/C (compound 3 µM): 45.3% [middle of 4 runs]

Structure (SMILES): Cn1ncnc1[C@H]1c2n[nH]c(=O)c3cc(F)cc(c23)N[C@@H]1c1ccc(F)cc1 + CC(Nc1ncnc2nc[nH]c12)c1cc2cccc(Cl)c2c(=O)n1-c1ccccc1
- IC50 [1]: > 0.1 µM
- IC50 [2]: > 0.1 µM
- IC50 [3]: > 0.1 µM
- IC50 [4]: > 0.1 µM
- IC50 [29]: > 0.1 µM
- IC50 [30]: > 0.1 µM
- viability, T/C (second compound 0.0316 µM, first compound 0.000316 µM): 104%
- viability, T/C (second compound 0.0316 µM, first compound 0.001 µM): 104%
- viability, T/C (second compound 0.0316 µM, first compound 0.00316 µM): 102%
- viability, T/C (second compound 0.0316 µM, first compound 0.01 µM): 96.8%
- viability, T/C [5]: 105%
- viability, T/C [6]: 96.8%
- viability, T/C (second compound 0.1 µM, first compound 0.000316 µM): 87.6%
- viability, T/C (second compound 0.1 µM, first compound 0.001 µM): 97.8%
- viability, T/C (second compound 0.1 µM, first compound 0.00316 µM): 97%
- viability, T/C (second compound 0.1 µM, first compound 0.01 µM): 92.9%
- viability, T/C [11]: 101%
- viability, T/C [12]: 93.5%
- viability, T/C (second compound 0.316 µM, first compound 0.000316 µM): 98.5%
- viability, T/C (second compound 0.316 µM, first compound 0.001 µM): 95.6%
- viability, T/C (second compound 0.316 µM, first compound 0.00316 µM): 106%
- viability, T/C (second compound 0.316 µM, first compound 0.01 µM): 96.9%
- viability, T/C [17]: 96.9%
- viability, T/C [18]: 101%
- viability, T/C (second compound 1 µM, first compound 0.000316 µM): 101%
- viability, T/C (second compound 1 µM, first compound 0.001 µM): 109%
- viability, T/C (second compound 1 µM, first compound 0.00316 µM): 99.7%
- viability, T/C (second compound 1 µM, first compound 0.01 µM): 105%
- viability, T/C [23]: 100%
- viability, T/C [24]: 91.5%
- viability, T/C (second compound 3.16 µM, first compound 0.000316 µM): 91.5%
- viability, T/C (second compound 3.16 µM, first compound 0.001 µM): 108%
- viability, T/C (second compound 3.16 µM, first compound 0.00316 µM): 106%
- viability, T/C (second compound 3.16 µM, first compound 0.01 µM): 90%
- viability, T/C [31]: 94.9%
- viability, T/C [32]: 100%
- viability, T/C (second compound 10 µM, first compound 0.000316 µM): 111%
- viability, T/C (second compound 10 µM, first compound 0.001 µM): 106%
- viability, T/C (second compound 10 µM, first compound 0.00316 µM): 102%
- viability, T/C (second compound 10 µM, first compound 0.01 µM): 96.7%
- viability, T/C [33]: 100%
- viability, T/C [34]: 95%

Structure (SMILES): C[C@@H](NC(=O)c1ncnc(N)c1Cl)c1ncc(C(=O)Nc2cc(C(F)(F)F)c(Cl)cn2)s1
- viability, T/C (compound 0.0316 µM): 103% [middle of 4 runs]
- viability, T/C (compound 0.1 µM): 92.3% [middle of 4 runs]
- viability, T/C (compound 0.316 µM): 112% [middle of 4 runs]
- viability, T/C (compound 1 µM): 106% [middle of 4 runs]
- viability, T/C (compound 3.16 µM): 109% [middle of 4 runs]
- viability, T/C (compound 10 µM): 86.8% [middle of 4 runs]
- IC50 (curve of compound): > 10 µM
